Values after ≈ are worked out from the molar mass of the structure shown.
Assays:
mouse Leukemia EL4 = test: Inhibition of proliferation of mouse leukemia EL4 cells; type: cell-based; details: 48 h; mouse leukemia EL4, 37° C, 2 days
Protocol: A cell suspension containing cells of mouse Leukemia L1210, mouse Leukemia P388, mouse Leukemia EL4, mouse IMC carcinoma or human lung cancer LX-1 cells in a culture medium containing 10% calf serum at a cell density of 1 x 10^5 cells/ml was prepared, and 200 μl-portion of the cell suspension so prepared was placed in a microplate and then added with a solution of MI43-37F11 substance at varying concentrations (dissolved in a mixture of water and dimethylsulfoxide (95:5)). The cell suspension containing the test compound added was subsequently incubated at 37° C for 2 days (but 5 days for the LX-1 cells).
After the incubation, the number of the cells of the L1210 cells, P388 cells, the EL4 cells and the IMC carcinoma cells in the treated groups was counted by means of Coulter-counter. The control group (untreated) of the cell suspension to which the test compound was not added was incubated in the same way as above and then the number of the cells was similarly counted.
Rate (%) of inhibition of the cell proliferation of the treated group against that of the control group (untreated) was evaluated. […]

peritoneal macrophages [1] = test: Activation of peritoneal macrophages (production of O2-); type: in vivo, CDF1 mice; details: for Rate (%) of increase in production of O2^-: one day before harvest, control 100
Protocol: (3) Experiments for estimation of the activity of MI43-37F11 substance to activate peritoneal macrophages were conducted by the following procedure. Thus, one day before the harvest of the peritoneal macrophages, the antibiotic MI43-37F11 substance was intraperitoneally administered to CDF1 mice (8-week old, female, 3 mice in each group) at a dosage of 50 mg/kg, 12.5 mg/kg or 3.125 mg/kg. One day after the administration, the macrophages were harvested from the peritoneal cavity of the treated mice and placed into a culture medium present in a plastic dish (Falcone, No. 3002, […], a product of Decton Dikinson & Company) at the cell concentration of 1×10^6 cells/m(, followed by incubation of the macrophages. The incubated medium containing the macrophages was then added with 100 ng/ml of phorbol myristate acetate to elicite the macrophages for their production of O2 -. The amount of O2 - was determined by reductive reaction with cytochrome C. The control group of mice (untreated) received only intraperitoneal injection of physiological saline in place of the administration of MI43-37F11 substance before the harvest of the peritoneal macrophages was done. Assumed that the amount of O2 - as produced and liberated by the peritoneal macrophages which were harvested from the mice of the control group was amounting to 100, the rate of increase in the amount of O2 - as produced by the peritoneal macrophages of the mice of the treated group was evaluated. In other words, the rate (%) of increase in the production of O2 - by the peritoneal macrophages of the mice of the treated group was calculated according to the following equation; [formula] where T means the amount of O2^- produced by the peritoneal macrophages of the mice of the treated group and C means the amount of O2^- produced by the peritoneal macrophages of the control group (untreated).

peritoneal macrophages [2] = test: Effect on phagocytosis of the peritoneal macrophages; type: in vivo, CDF1 mice; details: for Rate (%) of Increase in phagocytic action of peritoneal macrophages: 3 days and one day before harvest, control 100
Protocol: (4) Experiments for estimation of the effect of the antibiotic MI43-37F11 substance on phagocytosis of the peritoneal macrophages were conducted by the following procedure. Thus, 3 days and one day before the harvest of the peritoneal macrophages, MI43-37F11 substance was intraperitoneally administered to CDF1 mice (female, 8-weeks old, 3 mice) at a dosage of 50 mg/kg, 5 mg/kg or 0.5 mg/kg. One day after the administration of MI43-37F11 substance, the peritoneal macrophages were harvested from the peritoneal cavity of the mice of the treated group of mice and then inoculated into a culture medium present in a plastic dish (Falcone) at the cell density of 5×10^5 cells/m(, followed by incubation of the macrophages. The incubated medium containing the macrophages was then added with 7.5×10^6 cells/ml of heat-treated yeast cells, followed by further incubation for a time. The macrophages were then fixed by addition of methanol and stained by Giemsa staining method. The number of the yeast cells which received the phagocytosis by 400 macrophages was counted. The control group of mice (untreated) received only intraperitoneal injection of physiological saline in place of the administration of MI43-37F11 substance, before the harvest of the peritoneal macrophages was done. Assumed that the number of the yeast cells which had received the phagocytosis by 400 macrophages as harvested from the mice of the control group was amounting to 100, the rate of increase in the phagocytic action of the peritoneal macrophages as harvested from the treated group of mice was evaluated. In other words, the rate (%) of increase in the phagocytic action of the peritoneal macrophages of the mice of the treated group was calculated according to the following equation: [formula] where T means the mumber of yeast cells having received the phagocytosis by 400 macrophages which were harvested from the treated group of mice, and C means the number of yeast cells having received the phagocytosis by 400 macrophages which were harvested from the control group of mice (untreated).

`COc1cc(O)c2c(=O)oc(CO)cc2c1` [MI43-37F11 substance] was tested, and the IC50 (mouse Leukemia EL4) was 52 µg/mL (≈ 234 µM), the “Rate (%) of increase in production of O2^-” value (peritoneal macrophages [1]; 3.125 mg/kg i.p.) was 105% and the “Rate (%) of increase in production of O2^-” value (peritoneal macrophages [1]; 12.5 mg/kg i.p.) was 127%. The “Rate (%) of increase in production of O2^-” value (peritoneal macrophages [1]; 50 mg/kg i.p.) was 255%, the “increased production of O2- by peritoneal macrophages” value (peritoneal macrophages [1]; summary in words) was “effective” and the “Rate (%) of Increase in phagocytic action of peritoneal macrophages” value (peritoneal macrophages [2]; 0.5 mg/kg i.p.) was 102%. For the same molecule, the “Rate (%) of Increase in phagocytic action of peritoneal macrophages” value (peritoneal macrophages [2]; 5 mg/kg i.p.) was 80%, the “Rate (%) of Increase in phagocytic action of peritoneal macrophages” value (peritoneal macrophages [2]; 50 mg/kg i.p.) was 144% and the “enhance the phagocytic action of the macrophages” value (peritoneal macrophages [2]; summary in words) was “effective”.

Source: patent publication US5096924A, “Anticancer antibiotic MI43-37F11 substance” (501 Azidan Hojin Biseibutsu Kagaku Kenkyu Kai, priority 1989, dated 1992)
